≈ marks a conversion by molar mass, not a printed value. Where only a bound is given, the exact number is not on record here.

For data set [1], the system named is Staphylococcus aureus. The data set can be described thus: Antibacterial activity against Staphylococcus aureus ATCC 29213 by CLSI based micro-broth dilution method. The class given is functional.
Data set [2] relates to Staphylococcus aureus. The data set can be described thus: Antibacterial activity against methicillin-resistant Staphylococcus aureus N315 by CLSI based micro-broth dilution method. The class given is functional.
The subject of data set [3] is Staphylococcus aureus. The data set is described as follows: Antibacterial activity against methicillin-resistant Staphylococcus aureus clinical isolate M11 by CLSI based micro-broth dilution method. The class given is functional. Background: In broth dilution the organism is exposed to a series of concentrations in liquid medium.
The subject of data set [4] is Staphylococcus aureus. The data set can be described thus: Antibacterial activity against methicillin-resistant Staphylococcus aureus clinical isolate M12 by CLSI based micro-broth dilution method. The class given is functional.
Data set [5] deals with Staphylococcus aureus. The data set is described as follows: Antibacterial activity against methicillin-resistant Staphylococcus aureus clinical isolate M13 by CLSI based micro-broth dilution method. The class given is functional.
The test system of data set [6] is Staphylococcus aureus. The data set is described as follows: Antibacterial activity against methicillin-resistant Staphylococcus aureus clinical isolate M14 by CLSI based micro-broth dilution method. The class given is functional.
Data set [7] relates to Staphylococcus aureus. The data set can be described thus: Antibacterial activity against methicillin-resistant Staphylococcus aureus clinical isolate M16 by CLSI based micro-broth dilution method. The class given is functional.
For data set [8], the system named is Staphylococcus aureus. The data set can be described thus: Antibacterial activity against methicillin-resistant Staphylococcus aureus clinical isolate M17 by CLSI based micro-broth dilution method. The class given is functional.
Data set [9] relates to Staphylococcus aureus. The data set is described as follows: Antibacterial activity against methicillin-resistant Staphylococcus aureus clinical isolate M20 by CLSI based micro-broth dilution method. The class given is functional.
The subject of data set [10] is Staphylococcus aureus. The data set is described as follows: Antibacterial activity against methicillin-resistant Staphylococcus aureus clinical isolate M21 by CLSI based micro-broth dilution method. The class given is functional.
Data set [11] deals with Staphylococcus aureus. The data set is described as follows: Antibacterial activity against methicillin-resistant Staphylococcus aureus clinical isolate M22 by CLSI based micro-broth dilution method. The class given is functional.
Data set [12] has as its system Staphylococcus aureus. The data set is described as follows: Antibacterial activity against methicillin-resistant Staphylococcus aureus clinical isolate M23 by CLSI based micro-broth dilution method. The class given is functional.
The next data set relates to Escherichia coli. The data set is described as follows: Antibacterial activity against Escherichia coli ATCC 25922 by CLSI based micro-broth dilution method. The class given is functional.
Data set [13] can be described thus: Hemolytic activity in sheep erythrocytes incubated for 1 hr by absorbance based assay. The class given is toxicity, cell-based, Ovis aries, Erythrocyte.
Data set [14] can be described thus: Selectivity index, ratio of HC50 for hemolytic activity in sheep erythrocytes to MIC for antibacterial activity against Staphylococcus aureus ATCC 29213. The class given is toxicity, cell-based, RBC.

In general, MIC refers to the lowest concentration that inhibits growth of the organism. A higher MIC goes with a need for much substance. The term HC50 denotes the concentration giving 50% haemolysis. A low value points to stronger haemolysis. On to `C=CCc1cc(-c2ccc(OCCC[N+](C)(C)CC(=O)NCCCC)c(CC=C)c2)c2oc(=S)n(Cc3cccc(OC)c3)c2c1.[Br-]`, for which the MIC turned out to be 8 µg/mL with Staphylococcus aureus [1]; 8 µg/mL against Staphylococcus aureus [2]; 4 µg/mL against Staphylococcus aureus [3]; 4 µg/mL against Staphylococcus aureus [4]; 8 µg/mL with Staphylococcus aureus [5]; 4 µg/mL against Staphylococcus aureus [6]. Besides, the MIC was found to be 4 µg/mL against Staphylococcus aureus [7]; 8 µg/mL in the data set with Staphylococcus aureus [8]; 4 µg/mL with Staphylococcus aureus [9]; 4 µg/mL in the data set on Staphylococcus aureus [10]; 16 µg/mL against Staphylococcus aureus [11]; 8 µg/mL in the data set on Staphylococcus aureus [12]. This compound showed a minimal inhibitory concentration (MIC) in the data set on Escherichia coli greater than 128 µg/mL. This compound also came in with an HC50 at 1 h in data set [13] greater than 160 µg/mL. Further, in data set [14], the selectivity ratio is greater than 20.
Regarding `C=CCc1cc(-c2ccc(OCCC[N+](C)(C)CC(=O)NCCCC)c(CC=C)c2)c2oc(=S)n(Cc3c(Cl)cccc3Cl)c2c1.[Br-]`, the MIC against Staphylococcus aureus [1] worked out at 16 µg/mL; in the data set with Staphylococcus aureus [2], 32 µg/mL; against Staphylococcus aureus [3], 8 µg/mL; against Staphylococcus aureus [4], 4 µg/mL; against Staphylococcus aureus [5] it was 16 µg/mL; against Staphylococcus aureus [6], 16 µg/mL. Besides, the MIC in the data set with Staphylococcus aureus [7] worked out at 8 µg/mL; in the data set on Staphylococcus aureus [8], 16 µg/mL; against Staphylococcus aureus [9], 8 µg/mL; in the data set on Staphylococcus aureus [10] it was 8 µg/mL; against Staphylococcus aureus [11], 32 µg/mL; in the data set with Staphylococcus aureus [12], 8 µg/mL. The compound also came in with an MIC against Escherichia coli greater than 128 µg/mL. For the same compound, the HC50 at 1 h in data set [13] came to 400 µg/mL. Also, in [14], the selectivity ratio was found to be 25.
`C=CCc1cc(-c2ccc(OCCC[N+](C)(C)CC(=O)NCCCC)c(CC=C)c2)c2oc(=S)n(Cc3ccc(Cl)cc3Cl)c2c1.[Br-]`: the MIC in the data set with Staphylococcus aureus [1] was greater than 128 µg/mL; in the data set on Staphylococcus aureus [2] it was 128 µg/mL; in the data set on Staphylococcus aureus [3], greater than 128 µg/mL; against Staphylococcus aureus [4] it was greater than 128 µg/mL; in the data set on Staphylococcus aureus [5] it was greater than 128 µg/mL; in the data set on Staphylococcus aureus [6], greater than 128 µg/mL. The MIC in the data set with Staphylococcus aureus [7], against Staphylococcus aureus [8], against Staphylococcus aureus [9], in the data set on Staphylococcus aureus [10], against Staphylococcus aureus [11] and in the data set on Staphylococcus aureus [12] was greater than 128 µg/mL each time. The MIC against Escherichia coli was greater than 128 µg/mL. The same compound returned an HC50 at 1 h in [13] greater than 160 µg/mL. For the same compound, the selectivity ratio in data set [14] stood at 1.3.
As for `C=CCc1cc(-c2ccc(OCCC[N+](C)(C)CC(=O)NCCCC)c(CC=C)c2)c2oc(=S)n(Cc3ccc(Cl)c(Cl)c3)c2c1.[Br-]`, the MIC with Staphylococcus aureus [1] was 64 µg/mL; with Staphylococcus aureus [2], 32 µg/mL; against Staphylococcus aureus [3] it was 32 µg/mL; with Staphylococcus aureus [4], 32 µg/mL; in the data set with Staphylococcus aureus [5], 64 µg/mL; in the data set with Staphylococcus aureus [6], 32 µg/mL. Further, the MIC in the data set on Staphylococcus aureus [7] was 32 µg/mL; with Staphylococcus aureus [8] it was 128 µg/mL; in the data set with Staphylococcus aureus [9], 32 µg/mL; in the data set with Staphylococcus aureus [10] it was 16 µg/mL; against Staphylococcus aureus [11] it was 64 µg/mL; with Staphylococcus aureus [12], 32 µg/mL. For the same compound, the MIC with Escherichia coli was greater than 128 µg/mL. For the same compound, the HC50 at 1 h in [13] was greater than 160 µg/mL. In data set [14], the selectivity ratio was greater than 2.5.
As for `C=CCc1cc(-c2ccc(OCCC[N+](C)(C)CC(=O)NCCCC)c(CC=C)c2)c2oc(=S)n(Cc3cc(Br)cc(Br)c3)c2c1.[Br-]`, the MIC against Staphylococcus aureus [1] was greater than 128 µg/mL; against Staphylococcus aureus [2], 64 µg/mL; against Staphylococcus aureus [3], 32 µg/mL; against Staphylococcus aureus [4], 64 µg/mL; against Staphylococcus aureus [5] it was 128 µg/mL; against Staphylococcus aureus [6] it was 128 µg/mL. In addition, the minimal inhibitory concentration (MIC) was 64 µg/mL in the data set with Staphylococcus aureus [7]; 64 µg/mL in the data set on Staphylococcus aureus [8]; 32 µg/mL with Staphylococcus aureus [9]; 32 µg/mL with Staphylococcus aureus [10]; 64 µg/mL in the data set on Staphylococcus aureus [11]; 64 µg/mL against Staphylococcus aureus [12]. In addition, the MIC against Escherichia coli is greater than 128 µg/mL. Moreover, in data set [13], the HC50 at 1 h was greater than 160 µg/mL. In addition, the selectivity ratio in data set [14] was 1.3.
As for `C[C@@H](O)[C@H]1C(=O)N2C(C(=O)O)=C(S[C@@H]3CN[C@H](C(=O)N(C)C)C3)[C@H](C)[C@H]12` [MEROPENEM], the MIC in the data set with Escherichia coli is 0.063 µg/mL (≈ 0.164 µM).
On to `C=CCc1cc(-c2ccc(OCCC[N+](C)(C)CC(=O)NCCCC)c(CC=C)c2)c2oc(=S)n(Cc3cc(F)c(F)c(F)c3)c2c1.[Br-]`, for which the MIC is 2 µg/mL in the data set on Staphylococcus aureus [1]; 16 µg/mL in the data set on Staphylococcus aureus [2]; 2 µg/mL in the data set on Staphylococcus aureus [3]; 2 µg/mL in the data set on Staphylococcus aureus [4]; 4 µg/mL against Staphylococcus aureus [5]; 2 µg/mL against Staphylococcus aureus [6]. The MIC in the data set with Staphylococcus aureus [7] is 2 µg/mL; against Staphylococcus aureus [8] it was 4 µg/mL; with Staphylococcus aureus [9], 2 µg/mL; against Staphylococcus aureus [10], 2 µg/mL; with Staphylococcus aureus [11], 4 µg/mL; with Staphylococcus aureus [12], 2 µg/mL. The compound further yielded an MIC against Escherichia coli greater than 128 µg/mL. This compound also came in with an HC50 at 1 h in [13] of 52.8 µg/mL.

Values taken from ChEMBL document CHEMBL6127052, “Discovery of membrane-targeting amphiphilic honokiol derivatives containing an oxazolethione moiety to combat methicillin-resistant Staphylococcus aureus (MRSA) infections” (Eur J Med Chem, 2024).
